Measurements published in patent US8404265B2, “Contact lenses for extended release of bioactive agents containing diffusion attenuators” (University of Florida Research Foundation, Inc., priority 2008, dated 2013).

How the values were obtained:
Type in all cases: physicochemical
[1] = DX uptake, release and partition coefficient, Vitamin E loaded lenses; conditions: release from Vitamin E loaded lenses
Experimental: Drug containing Vitamin E loaded lenses were prepared by directly adding drug to a Vitamin E-ethanol solution before soaking the pure lens in the solution, or by soaking a Vitamin E loaded lens in a drug-PBS solution. Drug containing Vitamin E-ethanol solutions were prepared by dissolving the drug in 3 ml of a Vitamin E-ethanol solution and then pure lens were soaked in this drug/Vitamin E-ethanol for 24 hours. The drug containing Vitamin E-ethanol lenses were taken from the solution blotted with wipes and dried overnight before subsequent release experiments.
For PureVision™ lens loaded with Vitamin E, only three different Vitamin E loadings were examined since the effect of Vitamin E loading on drug transport is minimal compared to other lenses. The insets in FIG. 21 show plots for drug release for the initial hours. Vitamin E was loaded in the lens, the lens were dried and DX was loaded in the Vitamin E loaded lens by soaking the lens in the DX-PBS solutions. […] DX loading time is relatively long for ACUVUE® OASYS™ lenses and relatively short for PureVision™ lenses relative to that of NIGHT&DAY™ and O2OPTIX lenses for similar Vitamin E loadings regardless of the level of Vitamin E loading.
For loading, an experimentally determined partition coefficient of drug in the Vitamin E loaded lens (K) is defined as: […]

[2] = Diffusivity ratio from slope of % release versus square root of time; conditions: pure lenses
Text: FIG. 31 plots % drugs release by Vitamin E loaded lenses as a function of the square root of time, for DX, timolol, fluzonazole and DXP. The lines of FIG. 31 are best fit straight lines over short time release data having R^2 larger than 0.98. […] The straight lines can be expressed by the equation:
[formula] where Mt is the mass of drug released at time t, M∞ the mass of drug release as time approaches infinity and for perfect sink condition M∞=M0 (initial drug loading). Therefore, from the slope of the straight line in FIG. 31, diffusivities of drug in the Vitamin E loaded lens can be determined if the mean lens thickness is known. The slope for DX, timolol, fluzonazole and DXP release is plotted versus Vitamin E loading in FIG. 32A-D. The slope decreases as Vitamin E loading increases for all lenses for all drugs release, which means (√{square root over (D)}/h) decreases. […] The h also increases as Vitamin E loading increases and lens expands symmetrically for all expansion axes (isotropic expansion) as described above. The increase of h might be 6.8% for hydrated O2OPTIX lens with 34% Vitamin E loading from FIG. 5B. Consequently, √{square root over (D)} is 39.5% of that of pure lens, i.e., D of DX in the 34% Vitamin E loaded O2OPTIX lens is 15% of that of the vitamin free (pure) lens. […]

Solubility of DX = test: Solubility of DX
Experimental: For various drug loading methods, the mass of drug released at various time increments was divided by the total drug released at long time and plotted as a function of time. […] A DX-ethanol solution of equivalent concentration as the DX-PBS, 0.08 mg/ml as that of DX-PBS solution was used to allow direct comparison of the two loading modes, although a saturated DX in ethanol is about 1 mg/ml. […] For these lenses, there is not much difference in the total release amount of DX from the lenses soaked in DX-PBS solution for two different soaking times, but slower DX release is observed from lenses that were soaked for 7 days than that for 24 hours. […] For total release amount of DX, PureVision™ and ACUVUE® OASYS™ lenses release relatively smaller amounts (about 28 μg and 35 μg, respectively) compared to the other three lenses (about 38-41 μg). There is no correlation between amount of drugs released and the water content, which is likely because the hydrophobic drugs are expected to partition in the silicone rich phases, and so the partition coefficients in the gels will be mainly influenced by the silicone composition of the lenses. All the lenses soaked in DX-ethanol solution release substantially low amount of DX (2-8 μg). […]

Vitamin E
Vitamin E in the release medium, PBS [1]: not detected

CC(C)(C)NC[C@H](O)COc1nsnc1N1CCOCC1 [timolol]
D0 of timolol relative to D0 of DX [2]: about 3 factor

C[C@@H]1C[C@H]2[C@@H]3CCC4=CC(=O)C=C[C@]4(C)[C@@]3(F)[C@@H](O)C[C@]2(C)[C@@]1(O)C(=O)CO [DX, dexamethasone]
concentration of nearly saturated DX-PBS solution (Solubility of DX; PBS, room temperature): ~80 µg/mL | saturated DX in ethanol (Solubility of DX; ethanol): about 1 mg/ml
